In PMC4627759, “Identification of Host-Plant Volatiles and Characterization of Two Novel General Odorant-Binding Proteins from the Legume Pod Borer, Maruca vitrata Fabricius (Lepidoptera: Crambidae)” (PLoS ONE, 2015):
Entries after “also recorded” stand apart in the source; their conditions may differ. Like-named read-outs stand apart in the source and are kept apart here.

Columns and labels:
[1] = tested on: antennae of Maruca vitrata females; assay: GC-EAD: antennal response of female moths to floral volatiles; conditions: volatiles of V. unguiculata flower buds/flowers
Procedure: Headspace collections were initially analyzed by an Agilent Technologies 7890A GC with a flame ionization detector (FID) coupled with an electroantennogram detector (Syntech, Hilversum, The Netherlands) followed the procedures as described by with some modifications. The column was kept at 50°C for 1 min, increased to 200°C at a rate of 10°C/min and then increased to 240°C at a rate of 5°C/min, which was maintained for 5 min. The outlet of the GC column was split with a specific Electronic Pressure Control splitter (Agilent) to obtain the requested flow accuracy in a ratio of 1: 3 for the FID and the cut antenna. Volatile compounds eluting from the GC column were led to the mounted antenna through a heated (230°C) transfer line (TC-02, Syntech, Hilversum, the Netherlands). Each antenna was prepared by cutting both distal and basic segments and was immediately mounted on the holder using conductive gel (Spectra® 360; Parker Laboratories, Fairfield, New Jersey, USA). Each sample was tested five times. Each tested antenna was derived from a different female and used only once. Synthetic chemicals used in the experiments were purchased from Sigma Chemical Co., J&K Scientific Ltd., Tokyo Chemical Industry Co., Sinopharm Chemical Reagent Co. and Aladdin Chemistry Co., respectively.

[2] = biological target: MvitGOBP1 (Maruca vitrata, UniProt A0A0S1S6H9); assay: Fluorescence competitive binding assay (1-NPN displacement) with recombinant MvitGOBP1
Procedure: (§1) Fluorescence binding activity was determined as described by previous study. Emission fluorescence spectra were recorded on a Hitachi F-4500 at 25°C in a right angle configuration, with a 1 cm light path quartz cuvette and 5 nm slits for both excitation and emission. The protein was dissolved in 20 mM Tris-HCl buffer, pH 7.4, and ligands were added as 1 mM methanol solutions. To measure the affinity of the fluorescent ligand 1-NPN to MvitGOBP1-2, a 2 μM protein solution in 20 mM Tris-HCl (pH 7.4) was titrated with aliquots of […] ligand in methanol to final concentrations of 2–16 μM. The probe was excited at 337 nm and emission spectra were recorded between 380 and 450 nm. The affinities of the other ligands were measured in competitive binding assays, where a solution of the protein and 1-NPN, both at a concentration of 2 μM, was titrated with 1 mM methanol solutions of each competitor over concentration ranges of 2–24 μM, depending on the ligand. The dissociation constant for 1-NPN and the stoichiometry of binding were obtained by processing the data using Prism software. Dissociation constants of the competitors were calculated from the corresponding IC50 values (concentrations of ligands halving the initial fluorescence value of 1-NPN), using the equation: Ki = [IC50] / (1 + [1-NPN] / K1-NPN), where [1-NPN] is the free concentration of 1-NPN and K1-NPN is the dissociation constant of the complex protein/1-NPN.

[3] = biological target: MvitGOBP2 (Maruca vitrata, UniProt A0A088MJX9); assay: Fluorescence competitive binding assay (1-NPN displacement) with recombinant MvitGOBP2; conditions: for binding ability to MvitGOBP2 (in words): among the 17 tested compounds
Procedure: as §1

[4] = tested on: Maruca vitrata females; assay: Field trapping experiment with volatile-baited Delta-traps; assay type: in vivo; conditions: 100 μl of 100 ng/μl in hexane on rubber septa, one week, six traps, Student's t-test
Procedure: Field trap experiments were determined as described by Wang et al. Custom-built Delta-traps with sticky inserts and rubber septa purchased from Pherobio Technology Co. Ltd. were used in the field experiments during the moth flight season in 2014. Traps were suspended from iron stakes and placed approximately 15 m apart. Key components of host-plant volatiles were prepared in hexane, and 100 μl solution (100 ng/μl) were added to rubber septa to be used as lures. Hexane was used as blank control and six trap replicates were used in the field experiment. Traps were checked everyday and the number of female moths per trap was determined for one week. Statistical analyses of trap data were used SPSS (SPSS Inc., Chicago, Illinous, U.S.A.), the significance of the differences between tested group and control group was evaluated by Student's t-test at P < 0.05 and P < 0.01.

[5] = tested on: M. vitrata females; parameters: method as in earlier work; conditions: cited from earlier work
[6] = dissociation constant calculated from IC50, 1-NPN competition, read-out: MvitGOBP1 Ki
[7] = ligand concentration displacing 50% of fluorescence of MvitGOBP1/1-NPN complex, protein and 1-NPN 2 μM, pH 7.4, 25°C, read-out: MvitGOBP1 IC50
[8] = dissociation constant calculated from IC50, 1-NPN competition, read-out: MvitGOBP2 Ki
[9] = ligand concentration displacing 50% of fluorescence of MvitGOBP2/1-NPN complex, protein and 1-NPN 2 μM, pH 7.4, 25°C, read-out: MvitGOBP2 IC50
[10] = '-' = exceeded 50 μM for half-maximal inhibition, read-out: MvitGOBP2 IC50 (class symbol)

MvitGOBP1, sequence (A0A0S1S6H9 entry or part of it): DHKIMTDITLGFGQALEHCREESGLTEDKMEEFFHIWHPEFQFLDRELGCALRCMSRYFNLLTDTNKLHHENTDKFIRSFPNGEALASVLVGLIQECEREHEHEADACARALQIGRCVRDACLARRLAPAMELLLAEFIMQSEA
MvitGOBP2, sequence (A0A088MJX9 entry or part of it): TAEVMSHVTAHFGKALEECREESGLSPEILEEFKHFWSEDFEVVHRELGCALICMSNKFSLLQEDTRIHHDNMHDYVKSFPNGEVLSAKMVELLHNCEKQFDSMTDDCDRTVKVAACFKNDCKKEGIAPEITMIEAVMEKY

SMILES | EAD/EAG response of female antennae (in words) [1] | Ki [2, 6] [µM] | IC50 [2, 7] [µM] | Ki [3, 8] [µM] | IC50 [3, 9] [µM] | also measured
CC(=O)c1ccc(C)cc1C [1-(2,4-Dimethylphenyl)-ethanone] | responded | – | – | – | – | –
CCc1ccc(C(C)=O)cc1 [1-(4-ethylphenyl)-ethanone] | responded; also recorded: highest EAD responses | – | – | – | – | –
CCCCOC(=O)CCC [Compound 1, Butanoic acid butyl ester] | responded | 12.5 | 16.8 | 29.7 | 44.8 | female moths caught in traps vs blank lure [4]: significant difference compared with the blank lure
Oc1cccc2[nH]ccc12 [Compound 1H-indol-4-ol] | responded | – | – | – | – | female moths caught in traps vs blank lure [4]: significant difference compared with the blank lure; attraction of females in wind tunnel (in words) [5]: significantly attracted many M. vitrata females
C=C(C)[C@H]1CC=C(C)CC1 [Compound 2, Limonene] | responded | 13.8 | 18.6 | 29.2 | 44.1 | female moths caught in traps vs blank lure ([4]; listed as Limonene): most female moths were trapped; female moths caught in traps vs blank lure ([4]; listed as limonene): significant difference compared with the blank lure; also recorded: highest trapping effect; attraction of females in wind tunnel (in words) [5]: significantly attracted many M. vitrata females; also recorded: strong behavioral activity
CCc1cccc(CC)c1 [Compound 3, 1,3-diethylbenzene] | – | 28.8 | 38.7 | 22.4 | 33.8 | –
CCc1ccc(CC)cc1 [Compound 4, 1,4-diethylbenzene] | – | 19.2 | 25.8 | 27.1 | 40.9 | –
CCc1ccc(C=O)cc1 [Compound 4-ethylbenzaldehyde] | responded | – | – | – | – | –
CCC(=O)c1ccc(CC)cc1 [Compound 4-ethylpropiophenone] | – | – | – | – | – | female moths caught in traps vs blank lure [4]: significant difference compared with the blank lure
O=Cc1ccccc1 [Compound 5, Benzaldehyde] | responded | – | – | – | – | IC50 [2]: 22.4 µM; Ki [2]: 16.6 µM; IC50 [3]: > 50 µM
CC(=O)c1ccccc1 [Compound 6, Acetophenone] | – | 21.2 | 28.5 | 26.5 | 40 | –
O=Cc1ccccc1O [Compound 7, 2-hydroxybenzaldehyde] | – | – | – | – | – | IC50 [2]: 20.8 µM; Ki [2]: 15.5 µM; IC50 [3]: 41.9 µM; Ki [3]: 22.9 µM
CCc1ccc(C=O)cc1 [Compound 8, 4-ethylbenzaldehyde] | – | 14.2 | 19.1 | 33.1 | 50 | –
CCCCCCCCOC(=O)CCC [Compound 9, Butanoic acid octyl ester] | – | 26.8 | 36.1 | 8.5 | 12.9 | binding ability to MvitGOBP2 (in words) [3]: very great bind ability; EAD/EAG response of female antennae (in words) ([1]; listed as Butanoic acid octyl ester): EAG response was weaker than other plant volatiles; EAD/EAG response of female antennae (in words) ([1]; listed as butanoic acid octyl ester): responded; female moths caught in traps vs blank lure [4]: significant difference compared with the blank lure
CCc1ccc(C(C)=O)cc1 [Compound 10, 1-(4-ethylphenyl)-ethanone] | – | – | – | – | – | IC50 [2]: 22.9 µM; Ki [2]: 17 µM; IC50 [3]: 45 µM; Ki [3]: 29.8 µM
CC(C=O)Cc1ccccc1 (centres unmarked) [Compound 11, 2-methyl-3-phenylpropanal] | responded; also recorded: high electrophysiological responses | 17.8 | 23.9 | 3.81 | 6.98 | binding ability to MvitGOBP2 (in words) [3]: highest bind ability; female moths caught in traps vs blank lure [4]: significant difference compared with the blank lure; attraction of females in wind tunnel (in words) [5]: attract significantly M. vitrata females
CC(=O)c1ccc(C)cc1C [Compound 12, 1-(2,4-Dimethylphenyl)-ethanone] | – | 18 | 24.2 | – | – | IC50 [3, 10]: > 50 µM
CCC(=O)c1ccc(CC)cc1 [Compound 13, 4-ethylpropiophenone] | – | 15.2 | 20.4 | 26 | 39.3 | –
CC(=O)c1ccc(O)c(C)c1 [Compound 14, 4-hydroxy-3-methylacetophenone] | – | 18.3 | 24.6 | 17.1 | 25.8 | –
Oc1cccc2[nH]ccc12 [Compound 15, 1H-indol-4-ol] | – | 10.9 | 14.6 | – | – | IC50 [3, 10]: > 50 µM
CC(=O)c1ccc(C(C)=O)cc1 [Compound 16, 1,4-diacetyl benzene] | – | – | – | – | – | IC50 [2]: 30.5 µM; Ki [2]: 22.7 µM; IC50 [3]: 49.6 µM; Ki [3]: 32.9 µM
Cc1cc(C)cc(C(C)(C)C)c1 [Compound 17, 1-(1,1-Dimethylethyl)-3,5-dimethylbenzene] | – | 16.8 | 22.6 | – | – | IC50 [3, 10]: > 50 µM
